According to patent US4244869A, “Benzodiazepine derivatives and process of making them” (Kali-Chemie A.G., priority 1972, dated 1981):

Columns and labels:
mice [1] = experiment: Pentetrazol induced convulsions (anticonvulsive); format: in vivo; conditions: Mus musculus, po, 1 h, p.o., 60 min before pentetrazol 100 mg/kg s.c., read-out: Pentetrazol spasm ED50
Procedure: (§1) (2) Anti-convulsive properties
(a) Pentetrazol induced convulsions
The compounds were tested after per oral administration to groups of six mice each. Sixty minutes after application of the test compounds pentetrazol was injected subcutaneously at a dosage of 100 mg/kg. The appearance of clonic and tonic convulsions was checked through a total observation time of 45 minutes. The protective effects of the compounds against convulsions were determined in control tests with comparison compounds. The effective dose ED50 was computed from the probit logarithmic dosage curves (modified according to J. E. Blum et al. Arzneimittel-Forsch. 23, 377 [1973]).
(§2) The results obtained by these tests show the anticonvulsive activity of the test substances. According to the medical literature this is an important criteria for the appraising of the clinical effectiveness of tranquilizers.

mice [2] = experiment: Isolation aggressiveness (anxiety relieving and anti-aggressive activity); format: in vivo; conditions: Mus musculus, po, 0.5 h; orally, after 30 minutes, isolated mice
Procedure: (3) Anxiety relieving and anti-aggressive activity. Inhibition of the aggressiveness of a mouse caused by isolation.
Before the test the mice were kept for four weeks in strict isolation in single cages. After that time the mice which had been kept in isolation spontaneously attacked other mice which were introduced then and which had not been isolated. The test substances were administered to the isolated mice orally.
The results shown in these tests permit useful conclusions regarding the anxiety, stress and tension-relieving properties of the compound.

mice [3] = experiment: Test de la traction (musculotropic properties); format: in vivo; conditions: for Quotient 2: ED50 test de la traction / ED50 isolation aggressiveness; for ED50: Mus musculus, po, 2 h, p.o., after 120 minutes, mice
Procedure: (4) Musculotropic properties
This test is called the "test de la traction". In this test the compounds were administered to the mice per os. After 120 minutes the mice were suspended with their front paws from a thin horizontally extending wire. […] These tests have the purpose to check the effects on the muscle tone by the compounds.
The ED50 values was effected via EDV by a probit analysis.

mice [4] = experiment: Maximum electroshock (anticonvulsive); format: in vivo; conditions: Mus musculus, po, 1 h, orally, 60 min before electroshock
Procedure: as §1
The test substances were applied orally to the animals. Sixty minutes after application electrodes were fastened to the ears of the mice and an electric shock was effected. The dose was then determined at which in half of the animals tonic contractions in the rear extremities were prevented. The computation of the ED50 was again effected by means of the above-noted probit analysis (modified according to J. Swinyard, J. Pharmacol. exptl. Therap.-106, 93 [1952]).
as §2

mice [5] = experiment: Prolongation of hexobarbital induced sleep (C.N.S. quieting properties); format: in vivo; conditions: for Quotient 1: ED50 elongation of hexobarbital induced sleep / ED50 isolation aggressiveness; for ED50: Mus musculus, po, 0.5 h, p.o., 30 min before hexobarbital 64 mg/kg i.v., prolongation by a factor of 4 in half of the mice
Procedure: (5) C.N.S. quieting properties
(Prolongation of hexobarbital induced sleep)
The test substance was applied to the mice per os. The animals after 30 minutes received additionally an intravenous injection of 64 mg/kg of hexobarbital. […] The duration of this lateral position was then compared with the control group which had been treated only with hexobarbital.
As ED50 that dose was defined at which with one-half of the animals a prolongation of the lateral position occurred by a factor of 4 as against the control group (G. M. Everett, Nature 177, 1238 [1956]).

[6] = Acute seven-day toxicity (LD50), single oral application; parameters: species or system mice (white NMRI); conditions: mouse, in vivo, p.o., mice
Procedure: The acute seven-day toxicity is determined by a single application per os and intraperitoneally to white fasting NMRI mice. The computation of the LD50 values was effected via EDV by a probit analysis (Cavalli-Sforza, publisher Gustav Fischer, 1964, Grundbegriffe der Biometrie).

Row | Structure (SMILES) | ED50 (mice [1]) [mg/kg] | ED50 (mice [2]) [mg/kg] | Quotient 2 (mice [3]) | ED50 (mice [3]) [mg/kg] | ED50 (mice [4]) [mg/kg] | Quotient 1 (mice [5]) | ED50 (mice [5]) [mg/kg] | LD50 at 168 h [6] [mg/kg]
1 | CN1C(=O)CN=C(c2ccccc2)c2cc(Cl)ccc21 [Standard II, 7-chloro-1-methyl-5-phenyl-1,3-dihydro-2H-1,4-benzodiazepin-2-one, reference compound] | 0.5 | 3.6 | 1.2 | 4.2 | 9 | 0.42 | 1.5 | 
2 | COCC1CN=C(c2ccccc2Cl)c2cc(Br)ccc2N1C (stereo not drawn) [Compound 1, 7-bromo-1-methyl-2-methoxymethyl-5-(2'-chlorophenyl)-1H-2,3-dihydro-1,4-benzodiazepin] | 0.9 | 3.1 | 28.1 | 87 | 3 | 4.9 | 15.2 | 1580
3 | CCOCC1CN=C(c2ccccc2Cl)c2cc(Br)ccc2N1C (stereo not drawn) [Compound 2, 7-bromo-1-methyl-2-ethoxymethyl-5-(2'-chlorophenyl)-1H-2,3-dihydro-1,4-benzodiazepin] | 2.2 | 4.1 | 8.5 | 34.9 | 24.5 | 10.2 | 41.9 | > 1470
4 | COCC1CN=C(c2ccccc2F)c2cc(Br)ccc2N1C (stereo not drawn) [Compound 3, 7-bromo-1-methyl-2-methoxymethyl-5-(2'-fluorophenyl)-1H-2,3-dihydro-1,4-benzodiazepin] | 0.5 | 10.7 | 5.4 | 58.3 | 5 | 0.9 | 10.6 | 1580
5 | COCC1CN=C(c2ccccc2Cl)c2cc(Cl)ccc2N1C (stereo not drawn) [Standard I, 7-chloro-1-methyl-2-methoxymethyl-5-(2'-chlorophenyl)-1H-2,3-dihydro-1,4-benzodiazepin, reference compound] | 2 | 68 | 2.4 | 163 | 26 | 0.17 | 11.7 | 1780
